According to BigSolDB 2.1:

CCCCCCCCCCCCCCCCCCC
Details	solubility (mole fraction)
in cyclohexane, 282.25 K	0.201
in cyclohexane, 283.95 K	0.233
in cyclohexane, 286.65 K	0.29
in cyclohexane, 289.65 K	0.359
in cyclohexane, 292.8 K	0.458
in cyclohexane, 295.65 K	0.553
in cyclohexane, 297 K	0.6
in cyclohexane, 301.75 K	0.75
in ethanol, 282.7 K	0.0011
in ethanol, 284.8 K	0.0014
in ethanol, 286 K	0.0016
in ethanol, 287.4 K	0.0019
in ethanol, 288.7 K	0.0022
in ethanol, 289.95 K	0.0025
in ethanol, 290.95 K	0.003
in ethanol, 292.45 K	0.0035
in ethanol, 293.75 K	0.0041
in ethanol, 295.6 K	0.0051
in ethanol, 297.25 K	0.0062
in ethanol, 300.85 K	0.0083
in ethanol, 303.85 K	0.0115
in n-heptane, 278.25 K	0.129
in n-heptane, 279.5 K	0.145
in n-heptane, 280.95 K	0.164
in n-heptane, 282.45 K	0.19
in n-heptane, 284.25 K	0.22
in n-heptane, 286.55 K	0.256
in n-heptane, 288.7 K	0.314
in n-heptane, 290.95 K	0.393
in n-heptane, 293.7 K	0.478
in n-heptane, 296.95 K	0.611
in n-heptane, 302.3 K	0.786

CCCCCCCCCCCCCCCCCC
Details	solubility (mole fraction)
in cyclohexane, 281.45 K	0.214
in cyclohexane, 284.35 K	0.265
in cyclohexane, 287.2 K	0.35
in cyclohexane, 290.95 K	0.445
in cyclohexane, 294.8 K	0.576
in cyclohexane, 297.05 K	0.704
in ethanol, 283.05 K	0.0018
in ethanol, 285.75 K	0.0025
in ethanol, 287.7 K	0.0032
in ethanol, 289.25 K	0.0038
in ethanol, 291 K	0.0047
in ethanol, 292.6 K	0.0058
in ethanol, 294.35 K	0.0072
in ethanol, 296.2 K	0.0093
in ethanol, 297.95 K	0.0122
in ethanol, 299.45 K	0.0162
in n-heptane, 276.9 K	0.124
in n-heptane, 279 K	0.151
in n-heptane, 281.4 K	0.183
in n-heptane, 283.7 K	0.225
in n-heptane, 287.6 K	0.314
in n-heptane, 290.15 K	0.393
in n-heptane, 291.9 K	0.458
in n-heptane, 293.65 K	0.524
in n-heptane, 296.4 K	0.647
in n-heptane, 297.65 K	0.733
